The record followed here is patent publication US20130303509A1, “NAMPT INHIBITORS” (AbbVie Inc., priority 2012, published 2013).

What is called IC50 is the concentration that gives 50% inhibition. Read a high IC50 as weaker potency in that assay.

The subject of the assay is PC3 cells. Nature of the assay: NAMPT Cell Proliferation Assay. Format: cell-based. As to conditions: Homo sapiens, PC-3, 120 h, 5 days incubation, cell viability by Cell Titer Glo. Put shortly: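 Seeded at 500 cells/well in RPMI with 10% heat-inactivated FBS and left to attach overnight at 37° C, 5% CO2. Compounds were added as 10-fold dilutions […] for 5 days, then viability was read by CellTiter-Glo. IC50s came from sigmoidal fits of percent inhibition.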
Background: ATP-based viability assays read luminescence as a measure of living cells.
`Cc1ccc(N2CC(C(=O)Nc3ccc(C4CCN(C(=O)c5ccccc5)CC4)cc3)C2)c(F)n1` [Example 668, N-[4-(1-benzoylpiperidin-4-yl)phenyl]-1-(2-fluoro-6-methylpyridin-3-yl)azetidine-3-carboxamide]: the IC50 was above 10000 nM. `O=C(Nc1ccc(C2CCN(C(=O)c3ccccc3Cl)CC2)cc1)[C@H]1CCN(c2cccnn2)C1` [Example 669, (3S)-N-{4-[1-(2-chlorobenzoyl)piperidin-4-yl]phenyl}-1-(pyridazin-3-yl)pyrrolidine-3-carboxamide] had an IC50 of 1.88 nM. The value for `CCCC(C)C(=O)N1CCC(c2ccc(NC(=O)[C@H]3CCN(c4cccnn4)C3)cc2)CC1` (stereo partly drawn) [Example 670, (3S)-N-{4-[1-(2-methylpentanoyl)piperidin-4-yl]phenyl}-1-(pyridazin-3-yl)pyrrolidine-3-carboxamide] was 8.53 nM; that for `CC(C)CCC(=O)N1CCC(c2ccc(NC(=O)[C@H]3CCN(c4cccnn4)C3)cc2)CC1` [Example 671, (3S)-N-{4-[1-(4-methylpentanoyl)piperidin-4-yl]phenyl}-1-(pyridazin-3-yl)pyrrolidine-3-carboxamide] was 8.53 nM.

`Cc1ccc(C(=O)N2CCC(c3ccc(NC(=O)[C@H]4CCN(c5cccnn5)C4)cc3)CC2)c(C)c1` [Example 672, (3S)-N-{4-[1-(2,4-dimethylbenzoyl)piperidin-4-yl]phenyl}-1-(pyridazin-3-yl)pyrrolidine-3-carboxamide] yielded an IC50 of 4.05 nM. The value for `CCCCCCC(=O)N1CCC(c2ccc(NC(=O)[C@H]3CCN(c4cccnn4)C3)cc2)CC1` [Example 673, (3S)-N-[4-(1-heptanoylpiperidin-4-yl)phenyl]-1-(pyridazin-3-yl)pyrrolidine-3-carboxamide] was 11.6 nM. The value for `O=C(Nc1ccc(C2CCN(C(=O)c3ccc(Cl)cc3Cl)CC2)cc1)[C@H]1CCN(c2cccnn2)C1` [Example 674, (3S)-N-{4-[1-(2,4-dichlorobenzoyl)piperidin-4-yl]phenyl}-1-(pyridazin-3-yl)pyrrolidine-3-carboxamide] was 5.72 nM; that for `O=C(Nc1ccc(C2CCN(C(=O)Cc3ccc(F)cc3)CC2)cc1)[C@H]1CCN(c2cccnn2)C1` [Example 675, (3S)-N-(4-{1-[(4-fluorophenyl)acetyl]piperidin-4-yl}phenyl)-1-(pyridazin-3-yl)pyrrolidine-3-carboxamide] was 69.3 nM; that for `O=C(Nc1ccc(C2CCN(C(=O)c3cccc(F)c3F)CC2)cc1)[C@H]1CCN(c2cccnn2)C1` [Example 676, (3S)-N-{4-[1-(2,3-difluorobenzoyl)piperidin-4-yl]phenyl}-1-(pyridazin-3-yl)pyrrolidine-3-carboxamide] was 2.02 nM. The value for `Cc1cccc(C(=O)N2CCC(c3ccc(NC(=O)[C@H]4CCN(c5cccnn5)C4)cc3)CC2)c1` [Example 677, (3S)-N-{4-[1-(3-methylbenzoyl)piperidin-4-yl]phenyl}-1-(pyridazin-3-yl)pyrrolidine-3-carboxamide] was 9.3 nM; that for `CCCCCC(=O)N1CCC(c2ccc(NC(=O)[C@H]3CCN(c4cccnn4)C3)cc2)CC1` [Example 678, (3S)-N-[4-(1-hexanoylpiperidin-4-yl)phenyl]-1-(pyridazin-3-yl)pyrrolidine-3-carboxamide] was 6.09 nM; that for `Cc1ccsc1C(=O)N1CCC(c2ccc(NC(=O)[C@H]3CCN(c4cccnn4)C3)cc2)CC1` [Example 679, (3S)-N-(4-{1-[(3-methylthiophen-2-yl)carbonyl]piperidin-4-yl}phenyl)-1-(pyridazin-3-yl)pyrrolidine-3-carboxamide] was 0.6 nM. The compound `CC(C)C(C)C(=O)N1CCC(c2ccc(NC(=O)[C@H]3CCN(c4cccnn4)C3)cc2)CC1` (stereo partly drawn) [Example 680, (3S)-N-{4-[1-(2,3-dimethylbutanoyl)piperidin-4-yl]phenyl}-1-(pyridazin-3-yl)pyrrolidine-3-carboxamide] displayed a half-inhibitory concentration (IC50) of 3.55 nM. `CCCC(=O)N1CCC(c2ccc(NC(=O)[C@H]3CCN(c4cccnn4)C3)cc2)CC1` [Example 681, (3S)-N-[4-(1-butanoylpiperidin-4-yl)phenyl]-1-(pyridazin-3-yl)pyrrolidine-3-carboxamide] displayed an IC50 of 9.02 nM.

The compound `CCC(C)CC(=O)N1CCC(c2ccc(NC(=O)[C@H]3CCN(c4cccnn4)C3)cc2)CC1` (stereo partly drawn) [Example 682, (3S)-N-{4-[1-(3-methylpentanoyl)piperidin-4-yl]phenyl}-1-(pyridazin-3-yl)pyrrolidine-3-carboxamide] displayed a half-maximal inhibitory concentration (IC50) of 2.73 nM. The compound `Cc1cc(C)cc(CC(=O)N2CCC(c3ccc(NC(=O)[C@H]4CCN(c5cccnn5)C4)cc3)CC2)c1` [Example 683, (3S)-N-(4-{1-[(3,5-dimethylphenyl)acetyl]piperidin-4-yl}phenyl)-1-(pyridazin-3-yl)pyrrolidine-3-carboxamide] registered a concentration for half-maximal inhibition (IC50) of 9.02 nM. For `O=C(Nc1ccc(C2CCN(C(=O)c3cc(Cl)cc(Cl)c3)CC2)cc1)[C@H]1CCN(c2cccnn2)C1` [Example 684, (3S)-N-{4-[1-(3,5-dichlorobenzoyl)piperidin-4-yl]phenyl}-1-(pyridazin-3-yl)pyrrolidine-3-carboxamide], the midpoint of inhibition, the IC50, lay at 76.6 nM. In turn, `Cc1c(F)cccc1C(=O)N1CCC(c2ccc(NC(=O)[C@H]3CCN(c4cccnn4)C3)cc2)CC1` [Example 685, (3S)-N-{4-[1-(3-fluoro-2-methylbenzoyl)piperidin-4-yl]phenyl}-1-(pyridazin-3-yl)pyrrolidine-3-carboxamide] showed an IC50 of 8.28 nM.

For the compound `O=C(Nc1ccc(C2CCN(C(=O)Cc3ccc(Cl)cc3)CC2)cc1)[C@H]1CCN(c2cccnn2)C1` [Example 686, (3S)-N-(4-{1-[(4-chlorophenyl)acetyl]piperidin-4-yl}phenyl)-1-(pyridazin-3-yl)pyrrolidine-3-carboxamide], the IC50 worked out at 64.9 nM. Turning to `O=C(Nc1ccc(C2CCN(C(=O)c3ccoc3)CC2)cc1)[C@H]1CCN(c2cccnn2)C1` [Example 687, (3S)-N-{4-[1-(furan-3-ylcarbonyl)piperidin-4-yl]phenyl}-1-(pyridazin-3-yl)pyrrolidine-3-carboxamide], inhibition was half-maximal at 6.11 nM (IC50). With `Cc1ccc(C(=O)N2CCC(c3ccc(NC(=O)[C@H]4CCN(c5cccnn5)C4)cc3)CC2)cc1C` [Example 688, (3S)-N-{4-[1-(3,4-dimethylbenzoyl)piperidin-4-yl]phenyl}-1-(pyridazin-3-yl)pyrrolidine-3-carboxamide], the IC50 amounted to 9.4 nM. For the compound `O=C(Nc1ccc(C2CCN(C(=O)c3ccc(F)cc3)CC2)cc1)[C@H]1CCN(c2cccnn2)C1` [Example 689, (3S)-N-{4-[1-(4-fluorobenzoyl)piperidin-4-yl]phenyl}-1-(pyridazin-3-yl)pyrrolidine-3-carboxamide], it took 9.68 nM to reach half-maximal inhibition (IC50). On to `O=C(Nc1ccc(C2CCN(C(=O)c3cc(C(F)(F)F)ccc3Cl)CC2)cc1)[C@H]1CCN(c2cccnn2)C1` [Example 690, (3S)-N-(4-{1-[2-chloro-5-(trifluoromethyl)benzoyl]piperidin-4-yl}phenyl)-1-(pyridazin-3-yl)pyrrolidine-3-carboxamide], for which 3.14 nM corresponded to half-maximal inhibition (IC50). Take `CC(=O)N1CCC(c2ccc(NC(=O)[C@H]3CCN(c4cccnn4)C3)cc2)CC1` [Example 691, (3S)-N-[4-(1-acetylpiperidin-4-yl)phenyl]-1-(pyridazin-3-yl)pyrrolidine-3-carboxamide]: the 50% inhibitory concentration (IC50) was found to be 30 nM. Take `O=C(Nc1ccc(C2CCN(C(=O)c3ccc(F)cc3F)CC2)cc1)[C@H]1CCN(c2cccnn2)C1` [Example 692, (3S)-N-{4-[1-(2,4-difluorobenzoyl)piperidin-4-yl]phenyl}-1-(pyridazin-3-yl)pyrrolidine-3-carboxamide]: inhibition was half-maximal at 4.23 nM (IC50).

The compound `Cc1cc(C)cc(C(=O)N2CCC(c3ccc(NC(=O)[C@H]4CCN(c5cccnn5)C4)cc3)CC2)c1` [Example 693, (3S)-N-{4-[1-(3,5-dimethylbenzoyl)piperidin-4-yl]phenyl}-1-(pyridazin-3-yl)pyrrolidine-3-carboxamide] came in with an IC50 of 13.6 nM. In turn, `CCOCCC(=O)N1CCC(c2ccc(NC(=O)[C@H]3CCN(c4cccnn4)C3)cc2)CC1` [Example 694, (3S)-N-{4-[1-(3-ethoxypropanoyl)piperidin-4-yl]phenyl}-1-(pyridazin-3-yl)pyrrolidine-3-carboxamide] had an IC50 of 71.6 nM. The value for `O=C(Nc1ccc(C2CCN(C(=O)c3cc(Cl)ccc3Cl)CC2)cc1)[C@H]1CCN(c2cccnn2)C1` [Example 695, (3S)-N-{4-[1-(2,5-dichlorobenzoyl)piperidin-4-yl]phenyl}-1-(pyridazin-3-yl)pyrrolidine-3-carboxamide] was 6.16 nM; that for `Cc1ccc(C)c(C(=O)N2CCC(c3ccc(NC(=O)[C@H]4CCN(c5cccnn5)C4)cc3)CC2)c1` [Example 696, (3S)-N-{4-[1-(2,5-dimethylbenzoyl)piperidin-4-yl]phenyl}-1-(pyridazin-3-yl)pyrrolidine-3-carboxamide] was 4.67 nM; that for `Cc1ccc(F)cc1C(=O)N1CCC(c2ccc(NC(=O)[C@H]3CCN(c4cccnn4)C3)cc2)CC1` [Example 697, (3S)-N-{4-[1-(5-fluoro-2-methylbenzoyl)piperidin-4-yl]phenyl}-1-(pyridazin-3-yl)pyrrolidine-3-carboxamide] was 5.96 nM.

As to `O=C(Nc1ccc(C2CCN(C(=O)C(c3ccccc3)c3ccccc3)CC2)cc1)[C@H]1CCN(c2cccnn2)C1` [Example 698, (3S)-N-{4-[1-(diphenylacetyl)piperidin-4-yl]phenyl}-1-(pyridazin-3-yl)pyrrolidine-3-carboxamide], it took 67.9 nM to reach half-maximal inhibition (IC50). The value for `O=C(Nc1ccc(C2CCN(C(=O)c3ccc(C(F)(F)F)cc3)CC2)cc1)[C@H]1CCN(c2cccnn2)C1` [Example 699, (3S)-1-(pyridazin-3-yl)-N-(4-{1-[4-(trifluoromethyl)benzoyl]piperidin-4-yl}phenyl)pyrrolidine-3-carboxamide] was 65 nM; that for `C=CCCC(=O)N1CCC(c2ccc(NC(=O)[C@H]3CCN(c4cccnn4)C3)cc2)CC1` [Example 700, (3S)-N-{4-[1-(pent-4-enoyl)piperidin-4-yl]phenyl}-1-(pyridazin-3-yl)pyrrolidine-3-carboxamide] was 8.76 nM.
